The source of these data is ChEMBL document CHEMBL1131548, “Synthesis and biological evaluation of two analogues of (S)-alpha-methyl-3-carboxyphenylalanine” (Bioorg Med Chem Lett, 1998).

For test [1], the target named is Metabotropic glutamate receptor 6 (Homo sapiens) (UniProt O15303). Briefly: Compound was evaluated for its agonist activity against mGluR6 in Chinese hamster ovary (CHO) cells; Inactive. The class given is functional, cell-based.
The target is the same in test [2]. Briefly: Compound was evaluated for its agonist activity against mGluR6 in Chinese hamster ovary (CHO) cells at a concentration of 300 uM. It is filed as functional, cell-based.
The species entered for another test is Rattus norvegicus. The experiment in a line: Compound was evaluated for its antagonist activity and inhibition of forskolin-stimulated cAMP formation by L-AP4 (10 uM), in adult rat cortical slices. The class given is functional.

The source made the active and inactive calls. No cut-off for these calls is given here.

Metabotropic glutamate receptor 6 (Homo sapiens), sequence (O15303 whole entry): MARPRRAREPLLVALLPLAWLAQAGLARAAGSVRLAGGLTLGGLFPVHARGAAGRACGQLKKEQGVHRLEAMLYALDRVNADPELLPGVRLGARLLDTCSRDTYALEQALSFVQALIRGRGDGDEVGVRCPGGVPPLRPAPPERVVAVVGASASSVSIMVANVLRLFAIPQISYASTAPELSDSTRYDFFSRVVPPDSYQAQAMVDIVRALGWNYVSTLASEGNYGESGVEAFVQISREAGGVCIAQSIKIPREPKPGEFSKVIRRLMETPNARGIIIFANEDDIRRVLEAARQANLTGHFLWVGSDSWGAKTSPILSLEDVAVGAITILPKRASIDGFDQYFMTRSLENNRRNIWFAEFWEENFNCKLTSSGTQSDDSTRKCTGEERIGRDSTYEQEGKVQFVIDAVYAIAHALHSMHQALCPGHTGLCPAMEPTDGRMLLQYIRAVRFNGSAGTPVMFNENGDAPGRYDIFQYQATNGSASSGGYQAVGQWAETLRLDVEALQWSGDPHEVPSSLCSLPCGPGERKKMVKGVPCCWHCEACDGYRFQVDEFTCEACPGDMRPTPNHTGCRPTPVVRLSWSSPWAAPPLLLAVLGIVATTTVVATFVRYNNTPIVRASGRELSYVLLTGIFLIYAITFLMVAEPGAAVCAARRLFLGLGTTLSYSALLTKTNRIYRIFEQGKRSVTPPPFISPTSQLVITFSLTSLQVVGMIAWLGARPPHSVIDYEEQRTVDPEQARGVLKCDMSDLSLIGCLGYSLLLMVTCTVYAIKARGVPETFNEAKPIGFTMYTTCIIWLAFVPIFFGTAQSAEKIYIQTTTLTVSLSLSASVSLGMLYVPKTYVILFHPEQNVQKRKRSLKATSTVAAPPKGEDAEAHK

Turning to `C[C@@]1(C(=O)O)Cc2cc(C(=O)O)ccc2CN1`, the inhibition entry in test [1] is “inactive”.
Consider `C[C@](N)(Cc1cccc(P(=O)(O)O)c1)C(=O)O`, for which the inhibition in test [2] is 27%.
In the test listed under Rattus norvegicus, `C[C@](N)(Cc1cccc(C(=O)O)c1)C(=O)O` yielded an IC50 of 1 µM.
